Results: ChEMBL document CHEMBL5291721, “A preclinical secondary pharmacology resource illuminates target-adverse drug reaction associations of marketed drugs” (Nat Commun, 2023)

Key:
[1] = molecular target: Voltage-gated inwardly rectifying potassium channel KCNH2 (Homo sapiens, UniProt Q12809); type: functional; settings: read-out: AC50
[2] = molecular target: T1, Alpha-1A adrenergic receptor (Homo sapiens, UniProt P35348); type: functional, cell-based
T1 sequence (P35348 whole entry): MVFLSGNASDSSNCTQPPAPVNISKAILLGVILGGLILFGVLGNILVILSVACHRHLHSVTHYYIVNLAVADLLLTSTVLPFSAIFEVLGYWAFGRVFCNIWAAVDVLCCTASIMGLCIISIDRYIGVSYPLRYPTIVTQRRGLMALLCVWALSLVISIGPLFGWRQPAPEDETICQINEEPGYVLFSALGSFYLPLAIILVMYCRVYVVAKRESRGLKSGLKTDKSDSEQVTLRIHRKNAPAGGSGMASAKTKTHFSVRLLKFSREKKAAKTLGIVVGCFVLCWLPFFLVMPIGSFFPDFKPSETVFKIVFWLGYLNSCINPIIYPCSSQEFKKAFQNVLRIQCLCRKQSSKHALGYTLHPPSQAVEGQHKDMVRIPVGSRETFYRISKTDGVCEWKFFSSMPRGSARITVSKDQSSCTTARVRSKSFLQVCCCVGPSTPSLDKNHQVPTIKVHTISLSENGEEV

Thromboxane A2 receptor = molecular target: T2, Thromboxane A2 receptor (Homo sapiens, UniProt P21731); type: functional, cell-based
T2 sequence (P21731 whole entry): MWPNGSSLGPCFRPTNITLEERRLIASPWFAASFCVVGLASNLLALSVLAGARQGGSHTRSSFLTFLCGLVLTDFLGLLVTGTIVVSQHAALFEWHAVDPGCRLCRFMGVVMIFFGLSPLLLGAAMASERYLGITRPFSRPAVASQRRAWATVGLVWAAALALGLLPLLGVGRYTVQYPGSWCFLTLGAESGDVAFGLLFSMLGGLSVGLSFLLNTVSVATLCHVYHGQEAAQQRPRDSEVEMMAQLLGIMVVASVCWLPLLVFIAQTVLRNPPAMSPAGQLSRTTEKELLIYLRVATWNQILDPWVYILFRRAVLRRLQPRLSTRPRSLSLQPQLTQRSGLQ

[3] = molecular target: 5-hydroxytryptamine receptor 2B (Homo sapiens, UniProt P41595); type: functional, cell-based
Sequence of 5-hydroxytryptamine receptor 2B (P41595 whole entry): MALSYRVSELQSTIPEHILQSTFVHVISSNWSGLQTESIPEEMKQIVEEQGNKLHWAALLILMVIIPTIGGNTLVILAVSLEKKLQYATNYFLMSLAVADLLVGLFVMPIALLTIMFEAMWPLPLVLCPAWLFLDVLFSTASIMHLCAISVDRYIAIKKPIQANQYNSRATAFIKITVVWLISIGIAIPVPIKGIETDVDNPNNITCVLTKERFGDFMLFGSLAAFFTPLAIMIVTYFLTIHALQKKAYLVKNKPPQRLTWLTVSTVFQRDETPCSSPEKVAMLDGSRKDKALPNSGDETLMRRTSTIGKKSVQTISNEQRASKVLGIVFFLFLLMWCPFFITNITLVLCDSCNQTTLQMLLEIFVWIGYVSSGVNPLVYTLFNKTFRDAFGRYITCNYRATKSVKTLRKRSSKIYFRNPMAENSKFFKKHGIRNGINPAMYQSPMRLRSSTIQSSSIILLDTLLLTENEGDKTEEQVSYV

Acetylcholinesterase = Acetylcholinesterase (Homo sapiens, UniProt P22303); type: functional
Sequence of Acetylcholinesterase (P22303 whole entry): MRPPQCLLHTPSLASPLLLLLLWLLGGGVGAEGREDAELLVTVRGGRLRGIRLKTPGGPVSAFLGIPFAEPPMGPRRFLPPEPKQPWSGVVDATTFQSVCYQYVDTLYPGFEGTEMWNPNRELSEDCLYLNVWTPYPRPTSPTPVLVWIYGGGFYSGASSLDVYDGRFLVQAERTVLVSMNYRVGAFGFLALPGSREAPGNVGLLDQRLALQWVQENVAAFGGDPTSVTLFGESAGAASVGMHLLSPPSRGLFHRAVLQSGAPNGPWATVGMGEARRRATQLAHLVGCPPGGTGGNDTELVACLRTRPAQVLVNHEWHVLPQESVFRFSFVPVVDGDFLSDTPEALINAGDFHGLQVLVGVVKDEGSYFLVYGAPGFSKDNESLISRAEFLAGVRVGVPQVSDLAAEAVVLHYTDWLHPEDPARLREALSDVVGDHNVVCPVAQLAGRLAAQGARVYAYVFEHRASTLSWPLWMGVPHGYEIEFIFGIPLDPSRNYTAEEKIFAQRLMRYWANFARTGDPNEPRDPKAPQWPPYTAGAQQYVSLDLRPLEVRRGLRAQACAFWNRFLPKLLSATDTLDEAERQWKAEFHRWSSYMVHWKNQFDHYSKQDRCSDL

[4] = molecular target: T3, Muscarinic acetylcholine receptor M2 (Homo sapiens, UniProt P08172)
T3 sequence (P08172 whole entry): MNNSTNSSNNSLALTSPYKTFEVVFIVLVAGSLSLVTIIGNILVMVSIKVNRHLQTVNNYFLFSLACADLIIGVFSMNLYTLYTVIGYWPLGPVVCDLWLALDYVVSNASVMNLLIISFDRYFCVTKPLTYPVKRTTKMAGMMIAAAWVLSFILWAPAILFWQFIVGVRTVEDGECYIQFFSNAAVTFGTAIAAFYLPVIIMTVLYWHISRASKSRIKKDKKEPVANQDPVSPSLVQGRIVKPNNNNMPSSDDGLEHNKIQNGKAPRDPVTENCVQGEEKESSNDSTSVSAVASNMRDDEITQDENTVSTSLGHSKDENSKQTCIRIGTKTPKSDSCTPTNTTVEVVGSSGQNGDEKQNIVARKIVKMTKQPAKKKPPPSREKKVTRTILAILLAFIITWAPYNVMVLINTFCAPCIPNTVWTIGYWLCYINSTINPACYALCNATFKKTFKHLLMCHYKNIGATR

Mu-type opioid receptor = Mu-type opioid receptor (Homo sapiens, UniProt P35372)
Sequence of Mu-type opioid receptor (P35372 whole entry): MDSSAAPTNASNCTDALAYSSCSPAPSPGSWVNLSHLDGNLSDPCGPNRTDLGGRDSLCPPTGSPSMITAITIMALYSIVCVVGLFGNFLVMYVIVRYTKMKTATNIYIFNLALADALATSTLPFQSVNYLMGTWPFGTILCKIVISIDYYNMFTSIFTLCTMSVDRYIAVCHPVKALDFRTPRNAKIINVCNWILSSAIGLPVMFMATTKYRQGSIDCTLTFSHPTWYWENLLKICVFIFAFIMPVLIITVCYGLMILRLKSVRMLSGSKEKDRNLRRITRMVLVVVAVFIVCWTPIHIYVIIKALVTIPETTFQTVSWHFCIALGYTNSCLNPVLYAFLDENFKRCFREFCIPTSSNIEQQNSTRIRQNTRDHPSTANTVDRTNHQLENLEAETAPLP

[5] = molecular target: T4, Muscarinic acetylcholine receptor M1 (Homo sapiens, UniProt P11229); type: functional, cell-based
T4 sequence (P11229 whole entry): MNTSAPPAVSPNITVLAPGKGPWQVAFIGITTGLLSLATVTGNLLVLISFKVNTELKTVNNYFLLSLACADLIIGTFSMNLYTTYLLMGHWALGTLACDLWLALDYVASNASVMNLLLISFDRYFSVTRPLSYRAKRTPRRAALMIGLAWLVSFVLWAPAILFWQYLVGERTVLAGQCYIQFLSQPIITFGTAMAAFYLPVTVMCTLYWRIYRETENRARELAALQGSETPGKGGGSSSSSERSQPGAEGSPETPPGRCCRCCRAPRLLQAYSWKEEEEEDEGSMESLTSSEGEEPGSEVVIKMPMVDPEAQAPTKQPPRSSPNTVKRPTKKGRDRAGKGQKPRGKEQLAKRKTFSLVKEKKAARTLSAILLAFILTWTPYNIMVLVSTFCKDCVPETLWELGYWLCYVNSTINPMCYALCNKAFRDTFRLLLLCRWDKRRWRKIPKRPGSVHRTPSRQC

D(1A) dopamine receptor = D(1A) dopamine receptor (Homo sapiens, UniProt P21728)
Sequence of D(1A) dopamine receptor (P21728 whole entry): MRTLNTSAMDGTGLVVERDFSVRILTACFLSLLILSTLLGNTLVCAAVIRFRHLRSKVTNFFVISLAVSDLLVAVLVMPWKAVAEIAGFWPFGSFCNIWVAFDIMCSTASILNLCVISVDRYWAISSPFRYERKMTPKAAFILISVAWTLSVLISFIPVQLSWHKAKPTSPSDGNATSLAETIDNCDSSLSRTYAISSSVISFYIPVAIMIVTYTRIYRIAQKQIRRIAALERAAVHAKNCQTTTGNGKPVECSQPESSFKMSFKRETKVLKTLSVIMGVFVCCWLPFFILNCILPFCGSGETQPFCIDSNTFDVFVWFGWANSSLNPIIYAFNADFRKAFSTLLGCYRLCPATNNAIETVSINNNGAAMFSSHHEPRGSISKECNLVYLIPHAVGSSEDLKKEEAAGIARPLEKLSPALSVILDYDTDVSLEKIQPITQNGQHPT

Estrogen receptor = molecular target: T5, Estrogen receptor (Homo sapiens, UniProt P03372)
T5 sequence (P03372 whole entry): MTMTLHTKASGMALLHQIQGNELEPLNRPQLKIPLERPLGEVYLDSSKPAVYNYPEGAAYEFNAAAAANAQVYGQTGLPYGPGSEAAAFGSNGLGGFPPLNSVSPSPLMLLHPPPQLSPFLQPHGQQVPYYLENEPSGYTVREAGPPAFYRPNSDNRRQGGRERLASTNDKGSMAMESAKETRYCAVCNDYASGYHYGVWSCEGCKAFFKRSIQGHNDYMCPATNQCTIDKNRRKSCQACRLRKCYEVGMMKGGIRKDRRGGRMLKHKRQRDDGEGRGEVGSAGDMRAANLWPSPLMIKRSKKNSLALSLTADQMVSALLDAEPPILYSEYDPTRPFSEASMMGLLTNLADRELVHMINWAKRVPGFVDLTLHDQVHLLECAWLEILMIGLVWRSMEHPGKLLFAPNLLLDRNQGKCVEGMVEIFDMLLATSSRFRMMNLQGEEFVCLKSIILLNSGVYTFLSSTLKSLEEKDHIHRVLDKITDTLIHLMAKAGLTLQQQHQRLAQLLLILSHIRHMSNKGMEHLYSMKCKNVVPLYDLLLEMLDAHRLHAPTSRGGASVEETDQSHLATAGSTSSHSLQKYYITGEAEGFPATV

D(3) dopamine receptor = D(3) dopamine receptor (Homo sapiens, UniProt P35462)
Sequence of D(3) dopamine receptor (P35462 whole entry): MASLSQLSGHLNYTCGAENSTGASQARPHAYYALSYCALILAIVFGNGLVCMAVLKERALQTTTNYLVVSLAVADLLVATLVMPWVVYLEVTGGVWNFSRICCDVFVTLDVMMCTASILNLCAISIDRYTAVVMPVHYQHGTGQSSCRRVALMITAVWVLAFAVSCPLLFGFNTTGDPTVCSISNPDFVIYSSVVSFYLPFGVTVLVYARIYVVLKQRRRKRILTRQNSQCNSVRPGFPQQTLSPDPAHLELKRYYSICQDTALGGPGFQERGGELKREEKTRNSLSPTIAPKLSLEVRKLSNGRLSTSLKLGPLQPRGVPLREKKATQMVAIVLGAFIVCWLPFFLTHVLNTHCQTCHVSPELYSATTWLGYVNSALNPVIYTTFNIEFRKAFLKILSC

[6] = molecular target: Vascular endothelial growth factor receptor 2 (Homo sapiens, UniProt P35968); type: functional
Sequence of Vascular endothelial growth factor receptor 2 (P35968 whole entry): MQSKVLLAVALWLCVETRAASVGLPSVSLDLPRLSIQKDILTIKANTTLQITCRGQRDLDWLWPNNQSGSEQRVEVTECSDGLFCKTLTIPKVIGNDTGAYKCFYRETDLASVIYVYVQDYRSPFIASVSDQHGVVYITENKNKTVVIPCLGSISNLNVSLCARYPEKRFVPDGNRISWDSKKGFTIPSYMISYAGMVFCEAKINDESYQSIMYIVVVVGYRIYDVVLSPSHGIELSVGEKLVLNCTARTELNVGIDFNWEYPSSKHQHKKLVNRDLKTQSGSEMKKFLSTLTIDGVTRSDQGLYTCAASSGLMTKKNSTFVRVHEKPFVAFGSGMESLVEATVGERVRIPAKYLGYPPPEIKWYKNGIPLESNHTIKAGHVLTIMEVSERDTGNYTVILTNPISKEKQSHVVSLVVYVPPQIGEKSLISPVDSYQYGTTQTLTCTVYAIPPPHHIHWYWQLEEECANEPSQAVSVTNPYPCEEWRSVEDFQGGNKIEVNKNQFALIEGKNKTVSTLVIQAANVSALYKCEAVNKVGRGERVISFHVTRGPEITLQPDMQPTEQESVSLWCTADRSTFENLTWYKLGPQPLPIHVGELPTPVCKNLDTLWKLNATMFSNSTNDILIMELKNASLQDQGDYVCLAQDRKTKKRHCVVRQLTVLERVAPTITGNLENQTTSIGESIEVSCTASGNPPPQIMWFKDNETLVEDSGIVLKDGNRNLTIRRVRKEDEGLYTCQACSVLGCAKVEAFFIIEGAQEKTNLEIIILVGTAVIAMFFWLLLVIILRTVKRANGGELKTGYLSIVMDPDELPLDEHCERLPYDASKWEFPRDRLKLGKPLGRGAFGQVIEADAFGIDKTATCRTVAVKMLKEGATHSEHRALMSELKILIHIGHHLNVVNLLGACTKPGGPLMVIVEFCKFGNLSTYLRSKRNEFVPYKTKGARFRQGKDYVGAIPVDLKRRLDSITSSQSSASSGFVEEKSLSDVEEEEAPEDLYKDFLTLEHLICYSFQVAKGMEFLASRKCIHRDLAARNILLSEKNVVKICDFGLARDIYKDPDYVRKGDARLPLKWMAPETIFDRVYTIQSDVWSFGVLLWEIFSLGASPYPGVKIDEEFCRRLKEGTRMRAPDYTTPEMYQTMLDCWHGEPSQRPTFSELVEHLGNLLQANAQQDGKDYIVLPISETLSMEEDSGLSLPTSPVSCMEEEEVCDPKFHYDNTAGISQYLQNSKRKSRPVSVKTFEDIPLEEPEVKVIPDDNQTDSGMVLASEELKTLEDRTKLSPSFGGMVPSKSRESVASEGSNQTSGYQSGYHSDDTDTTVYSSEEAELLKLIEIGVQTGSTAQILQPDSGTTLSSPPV
Further: assay procedure not described here.

Sequence of Voltage-gated inwardly rectifying potassium channel KCNH2 (Q12809 whole entry): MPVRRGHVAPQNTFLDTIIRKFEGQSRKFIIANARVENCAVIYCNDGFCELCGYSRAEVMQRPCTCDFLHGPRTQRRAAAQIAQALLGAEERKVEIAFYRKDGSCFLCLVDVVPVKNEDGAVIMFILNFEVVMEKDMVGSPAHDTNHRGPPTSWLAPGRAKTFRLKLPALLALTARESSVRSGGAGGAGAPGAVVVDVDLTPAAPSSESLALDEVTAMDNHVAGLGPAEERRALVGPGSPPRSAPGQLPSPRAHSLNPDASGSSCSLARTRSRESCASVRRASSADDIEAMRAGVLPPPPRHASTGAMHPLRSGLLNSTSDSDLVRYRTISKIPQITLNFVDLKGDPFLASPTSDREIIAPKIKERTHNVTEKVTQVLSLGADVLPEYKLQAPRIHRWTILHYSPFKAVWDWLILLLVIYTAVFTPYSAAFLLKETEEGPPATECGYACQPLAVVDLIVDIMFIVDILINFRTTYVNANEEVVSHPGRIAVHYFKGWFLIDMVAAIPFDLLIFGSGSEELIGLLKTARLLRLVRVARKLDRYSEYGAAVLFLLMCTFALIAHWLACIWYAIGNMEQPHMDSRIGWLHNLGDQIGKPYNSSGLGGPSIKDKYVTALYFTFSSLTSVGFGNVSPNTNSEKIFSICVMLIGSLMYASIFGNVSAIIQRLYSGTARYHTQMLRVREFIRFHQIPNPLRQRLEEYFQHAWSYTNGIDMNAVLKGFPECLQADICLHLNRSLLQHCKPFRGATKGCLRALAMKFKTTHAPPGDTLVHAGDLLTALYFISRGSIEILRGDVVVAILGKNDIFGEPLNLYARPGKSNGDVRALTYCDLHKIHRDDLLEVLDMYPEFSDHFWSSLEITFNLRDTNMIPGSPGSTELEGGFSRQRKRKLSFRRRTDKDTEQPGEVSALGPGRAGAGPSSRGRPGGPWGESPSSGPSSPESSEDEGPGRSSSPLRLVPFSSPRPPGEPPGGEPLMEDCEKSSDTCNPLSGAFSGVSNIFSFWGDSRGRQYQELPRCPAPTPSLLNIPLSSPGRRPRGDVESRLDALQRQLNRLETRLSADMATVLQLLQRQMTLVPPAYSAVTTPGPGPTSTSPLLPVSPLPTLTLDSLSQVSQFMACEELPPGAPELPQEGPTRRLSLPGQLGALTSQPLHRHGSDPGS

SMILES	AC50 [1]	AC50 [2]	AC50 (Thromboxane A2 receptor)	AC50 [3]	AC50 (Acetylcholinesterase)	AC50 [4]	AC50 (Mu-type opioid receptor)	AC50 [5]	AC50 (D(1A) dopamine receptor)	AC50 (Estrogen receptor)	AC50 (D(3) dopamine receptor)	AC50 [6]
CCC(CC)(CC(=O)Nc1cccc(/C=C/c2nc(C3CCC3)cs2)c1)C(=O)O	> 30 µM	> 3 µM	> 10 µM	> 30 µM	> 30 µM	> 30 µM	> 30 µM	> 10 µM	> 30 µM	> 30 µM	> 30 µM	
O=[N+]([O-])O[C@@H]1CO[C@H]2[C@@H]1OC[C@@H]2O [ISOSORBIDE MONONITRATE]	> 30 µM	> 30 µM	> 30 µM	> 30 µM	> 30 µM	> 30 µM	> 30 µM	> 30 µM	> 30 µM	> 30 µM	> 30 µM	
O=C(Oc1ccc2c(c1)CCCN2C(=O)C(Cl)Cl)c1ccco1 [QUINFAMIDE]	> 30 µM	24.6 µM	> 30 µM	> 30 µM	> 30 µM	> 30 µM	> 30 µM	> 30 µM	> 30 µM	20.3 µM	> 30 µM	
CCCCS(=O)(=O)N[C@@H](Cc1ccc(OCCCCC2CCNCC2)cc1)C(=O)O [TIROFIBAN]	> 30 µM	> 10 µM	> 30 µM	> 30 µM	> 30 µM	20.4 µM	> 30 µM	> 30 µM	> 30 µM	> 30 µM	> 30 µM	
Clc1cc(Cl)c(OCC#CI)cc1Cl [HALOPROGIN]	9.85 µM	> 30 µM	> 30 µM	> 30 µM	> 30 µM	> 30 µM	12.3 µM			> 30 µM	1.16 µM	> 30 µM
Cc1oc(=O)oc1CN1CCN(c2cc3c(cc2F)c(=O)c(C(=O)O)c2n3C(C)S2)CC1 (configuration not stated) [PRULIFLOXACIN]	> 30 µM		> 30 µM	> 30 µM	> 30 µM	> 30 µM	> 30 µM		> 30 µM	> 30 µM	> 30 µM	
COc1cc2nc(N3CCN(C(=O)c4ccco4)CC3)nc(N)c2cc1OC [PRAZOSIN]	3.73 µM		> 30 µM	> 30 µM	23.7 µM	13.3 µM	17.5 µM		8.64 µM	> 30 µM	> 30 µM	
C=CCCCCCCCCC(=O)O [UNDECYLENIC ACID]			> 30 µM	> 30 µM	> 30 µM	> 30 µM	> 30 µM		> 30 µM	> 30 µM	> 30 µM	
O=[N+]([O-])c1cn2c(n1)OC[C@@H](OCc1ccc(OC(F)(F)F)cc1)C2 [PRETOMANID]		> 10 µM	> 30 µM	> 30 µM	> 30 µM	> 30 µM	> 30 µM	> 30 µM	> 30 µM	> 30 µM	> 30 µM	
OC(c1ccccc1)(c1ccccc1)C12CC[N+](CCOCc3ccccc3)(CC1)CC2		> 30 µM	> 30 µM	> 30 µM	> 30 µM	0.0044 µM	1.07 µM	> 30 µM	> 30 µM	> 30 µM	> 30 µM	
COC1=C(OC)C(=O)C(C/C=C(\C)CC/C=C(\C)CC/C=C(\C)CC/C=C(\C)CC/C=C(\C)CC/C=C(\C)CC/C=C(\C)CC/C=C(\C)CC/C=C(\C)CCC=C(C)C)=C(C)C1=O [UBIDECARENONE]	> 30 µM	> 30 µM	> 30 µM	> 30 µM	> 30 µM	> 30 µM	> 30 µM	> 30 µM	> 30 µM	> 30 µM	> 30 µM	
O=c1[nH]c(=O)n([C@H]2C[C@H](O)[C@@H](CO)O2)cc1F [FLOXURIDINE]	> 30 µM	> 30 µM	> 30 µM	> 30 µM	> 30 µM	> 30 µM	> 30 µM		> 30 µM	> 30 µM	> 30 µM	> 30 µM
Nc1nc2nc[nH]c2c(=S)[nH]1 [THIOGUANINE]		> 30 µM	> 30 µM	> 30 µM	> 30 µM	> 30 µM	> 30 µM		> 30 µM	> 30 µM	> 30 µM	
CC[C@]1(O)C[C@H]2CN(CCc3c([nH]c4ccccc34)[C@@](C(=O)OC)(c3cc4c(cc3OC)N(C=O)[C@H]3[C@@](O)(C(=O)OC)[C@H](OC(C)=O)[C@]5(CC)C=CCN6CC[C@]43[C@@H]65)C2)C1 [VINCRISTINE]		> 30 µM	> 30 µM	> 30 µM	> 30 µM	> 30 µM	> 30 µM		> 30 µM	> 30 µM	> 30 µM	
Cc1ccccc1OCC(O)CO (configuration not stated) [MEPHENESIN]	> 30 µM	> 30 µM	> 30 µM	> 30 µM	> 30 µM	> 30 µM	> 30 µM	> 30 µM	> 30 µM		> 30 µM	> 30 µM
O=C(O)c1ccccc1C(=O)Nc1ccc(S(=O)(=O)Nc2nccs2)cc1 [PHTHALYLSULFATHIAZOLE]	> 30 µM	> 30 µM	> 30 µM	> 30 µM	> 30 µM	> 30 µM	> 30 µM	> 30 µM	> 30 µM		> 30 µM	> 30 µM
